According to ChEMBL document CHEMBL1153897, “Small molecules with potent osteogenic-inducing activity in osteoblast cells” (Bioorg Med Chem Lett, 2009):
The source made the active and inactive calls. No cut-off for these calls is given here.

Columns and labels:
MC3T3-E1 [1] = assay: Induction of osteogenesis in mouse MC3T3-E1 cells assessed as osteocalcin secretion at 25 uM after 3 weeks; format: functional, cell-based; conditions: MC3T3-E1, 504 h
MC3T3-E1 [2] = assay: Inhibition of staurosporine-induced apoptosis in mouse MC3T3-E1 cells by caspase 3 colorimetric assay; format: functional, cell-based
[3] = Antiproliferative activity against mouse MC3T3-E1 cells after 24 hrs by BrdU incorporation assay; format: cell-based; conditions: mc3t3-e1, 24 h
[4] = Cytotoxicity against mouse MC3T3-E1 cells after 4 hrs by fluorescent Alamar blue assay; format: cell-based; conditions: mc3t3-e1, 4 h
MC3T3-E1 [5] = assay: Induction of osteogenesis in mouse MC3T3-E1 cells assessed as calcium level at 25 uM after 3 weeks; format: functional, cell-based; conditions: MC3T3-E1, 504 h
MC3T3-E1 [6] = assay: Induction of osteogenesis in mouse MC3T3-E1 cells assessed as alkaline phosphatase secretion at 25 uM after 3 weeks by ELISA; format: functional, cell-based; conditions: MC3T3-E1, 504 h
[7] = Cytotoxicity against mouse MC3T3-E1 cells assessed as increase in apoptosis treated for 3 hrs measured after 22 hrs by caspase 3 colorimetric assay; format: cell-based

| EC50 (MC3T3-E1 [1]) [nM] | EC50 (MC3T3-E1 [5]) [nM] | EC50 (MC3T3-E1 [6]) [nM] | Structure (SMILES) | Activity (MC3T3-E1 [2]) | Activity [3] | Activity [4] | Activity [7] |
| --- | --- | --- | --- | --- | --- | --- | --- |
| 30 | 50 | 90 | COc1cc2nccc(Oc3ccc4c(C(=O)Nc5ccc(C)cc5)cccc4c3)c2cc1OC | inactive | Dose-dependent effect | Non-toxic | – |
| 100 | 150 | 120 | COc1cc2nccc(Oc3ccc4c(NC(=O)c5ccc(C)cc5)cccc4c3)c2cc1OC | – | – | – | – |
| – | – | – | CN[C@@H]1C[C@H]2O[C@@](C)([C@@H]1OC)n1c3ccccc3c3c4c(c5c6ccccc6n2c5c31)C(=O)NC4 [STAUROSPORINE] | – | – | – | Non-toxic |
